In PubChem BioAssay (NCI):
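Protocol summary: plate cells (96-well), add compound at 5 concentrations, incubate 48 h, interpolate endpoints linearly. TGI: total growth inhibition.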

How the values were obtained:
Test in all cases: NCI tumour cell line growth inhibition, 48 h
OVCAR-5 ovarian = system: OVCAR-5 ovarian
HOP-62 NSCLC = system: HOP-62 NSCLC
MDA-MB-231 breast = system: MDA-MB-231 breast
NCI-H23 lung = system: NCI-H23 lung
LOX IMVI melanoma = system: LOX IMVI melanoma
MALME-3M melanoma = system: MALME-3M melanoma
SK-OV-3 ovarian = system: SK-OV-3 ovarian
SK-MEL-28 melanoma = system: SK-MEL-28 melanoma
IGROV1 ovarian = system: IGROV1 ovarian
SF-295 CNS = system: SF-295 CNS
NCI-H522 lung = system: NCI-H522 lung
SK-MEL-2 melanoma = system: SK-MEL-2 melanoma
NCI/ADR-RES ovarian = system: NCI/ADR-RES ovarian
MDA-N = system: MDA-N
ACHN renal = system: ACHN renal
MDA-MB-435 = system: MDA-MB-435
SR leukemia = system: SR leukemia
OVCAR-8 ovarian = system: OVCAR-8 ovarian
SF-268 CNS = system: SF-268 CNS
HOP-92 NSCLC = system: HOP-92 NSCLC
TK-10 renal = system: TK-10 renal
UACC-62 melanoma = system: UACC-62 melanoma
RPMI-8226 leukemia = system: RPMI-8226 leukemia
M14 melanoma = system: M14 melanoma
SN12C renal = system: SN12C renal
U251 CNS = system: U251 CNS
A549 NSCLC = system: A549 NSCLC
HT29 colon = system: HT29 colon
EKVX NSCLC = system: EKVX NSCLC
SNB-19 CNS = system: SNB-19 CNS
SK-MEL-5 melanoma = system: SK-MEL-5 melanoma
KM12 colon = system: KM12 colon
786-0 renal = system: 786-0 renal
MCF7 breast = system: MCF7 breast
UO-31 renal = system: UO-31 renal
PC-3 prostate = system: PC-3 prostate
HCT-15 colon = system: HCT-15 colon
COLO 205 colon = system: COLO 205 colon
SNB-75 CNS = system: SNB-75 CNS
MOLT-4 leukemia = system: MOLT-4 leukemia
OVCAR-3 ovarian = system: OVCAR-3 ovarian
OVCAR-4 ovarian = system: OVCAR-4 ovarian
CCRF-CEM leukemia = system: CCRF-CEM leukemia
A498 renal = system: A498 renal
SW-620 colon = system: SW-620 colon
NCI-H226 lung = system: NCI-H226 lung
HCT-116 colon = system: HCT-116 colon
HS 578T breast = system: HS 578T breast
K-562 leukemia = system: K-562 leukemia
DU-145 prostate = system: DU-145 prostate

Cc1ccc(/C=C2\NC(=S)N(CN3CCCCC3)C2=O)cc1
TGI (OVCAR-5 ovarian): > 100 µM | TGI (HOP-62 NSCLC): > 100 µM | TGI (MDA-MB-231 breast): > 100 µM | TGI (NCI-H23 lung): > 100 µM | TGI (LOX IMVI melanoma): > 100 µM | TGI (MALME-3M melanoma): > 100 µM | TGI (SK-OV-3 ovarian): > 100 µM | TGI (SK-MEL-28 melanoma): > 100 µM | TGI (IGROV1 ovarian): > 100 µM | TGI (SF-295 CNS): > 100 µM | TGI (NCI-H522 lung): > 100 µM | TGI (SK-MEL-2 melanoma): > 100 µM | TGI (NCI/ADR-RES ovarian): > 100 µM | TGI (MDA-N): > 100 µM | TGI (ACHN renal): > 100 µM | TGI (MDA-MB-435): > 100 µM | TGI (SR leukemia): > 100 µM | TGI (OVCAR-8 ovarian): > 100 µM | TGI (SF-268 CNS): > 100 µM | TGI (HOP-92 NSCLC): 94.4 µM | TGI (TK-10 renal): > 100 µM | TGI (UACC-62 melanoma): > 100 µM | TGI (RPMI-8226 leukemia): > 100 µM | TGI (M14 melanoma): > 100 µM | TGI (SN12C renal): > 100 µM | TGI (U251 CNS): > 100 µM | TGI (A549 NSCLC): > 100 µM | TGI (HT29 colon): 72.7 µM | TGI (EKVX NSCLC): > 100 µM | TGI (SNB-19 CNS): > 100 µM | TGI (SK-MEL-5 melanoma): > 100 µM | TGI (KM12 colon): > 100 µM | TGI (786-0 renal): > 100 µM | TGI (MCF7 breast): > 100 µM | TGI (UO-31 renal): > 100 µM | TGI (PC-3 prostate): > 100 µM | TGI (HCT-15 colon): > 100 µM | TGI (COLO 205 colon): 39.8 µM | TGI (SNB-75 CNS): > 100 µM | TGI (MOLT-4 leukemia): > 100 µM | TGI (OVCAR-3 ovarian): > 100 µM | TGI (OVCAR-4 ovarian): > 100 µM | TGI (CCRF-CEM leukemia): 86.7 µM | TGI (A498 renal): > 100 µM | TGI (SW-620 colon): > 100 µM | TGI (NCI-H226 lung): > 100 µM | TGI (HCT-116 colon): > 100 µM | TGI (HS 578T breast): > 100 µM | TGI (K-562 leukemia): > 100 µM | TGI (DU-145 prostate): > 100 µM
